Counter-ions that a name gives are not always drawn.

Assay [1] concerns the target Tyk2 kinase activity on STAT4 in NK92 cells (Homo sapiens, UniProt P29597). Nature of the assay: pSTAT4 cell assay (MSD; NK92 cells, 30 ng/mL IL2 stimulation). To be noted: 30 ng/mL IL2, 15 minutes. It is filed as cell-based. A digest of the protocol:
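Cells natively expressing STAT4 and Tyk2 (NK92) are serum-starved to lower background phosphorylation, exposed to compound for 1 hr over a 10-point four-fold series starting at 10 μM, and stimulated with 30 ng/mL IL2 for 15 minutes. Phosphorylation is quantified on MSD with anti-STAT4 antibodies.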

Assay [2] deals with JAK1 kinase activity on STAT3 in TF1 cells (Homo sapiens, UniProt P23458). Kind of assay: pSTAT3 cell assay (MSD; TF1 cells, 30 ng/mL IL-6 stimulation). It is filed as cell-based. The following applies: 30 ng/mL IL-6, 15 minutes. A digest of the protocol:
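IC50 values derive from 4-parameter logistic fits of normalized pSTAT3 signal, measured by MSD with anti-STAT3 antibodies. TF1 cells, serum-starved beforehand, received compound for 1 hour (top concentration 10 μM, four-fold steps, 10 points) before a 15-minute IL-6 (30 ng/mL) stimulus.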

For assay [3], the target named is T1, human JAK1 kinase domain (JH1) (Homo sapiens, UniProt P23458).
T1 construct: recombinantly generated catalytic kinase (also known as JH1) domain of human JAK1, JAK2, JAK3 and TYK2
Kind of assay: JH1 biochemical assay for JAK1 (ADP-Glo kinase assay, recombinant JH1 catalytic domain, JAK3-342 peptide, 35 μM ATP). To be noted: JH1 kinase domain, ADP-Glo. A digest of the protocol:
(§1)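 Reactions contain 50 μM peptide and run 100 minutes, with enzyme at 4, 0.2, 0.3 and 2 nM for JAK1, JAK2, JAK3 and TYK2. Generated ADP is read by luminescence; IC50 derives from normalized dose-response curves.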
On the technique in general: ADP-Glo first removes unused ATP, then detects ADP through luciferase.

Assay [4] deals with JAK2 kinase activity on STAT5 in TF1 cells (Homo sapiens, UniProt O60674). Kind of assay: pSTAT5 cell assay (MSD; TF1 cells, 30 ng/mL IL-3 stimulation). It is filed as cell-based. To be noted: 30 ng/mL IL-3, 15 minutes. A digest of the protocol:
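IC50 from a 4-parameter logistic fit of normalized pSTAT5 signal, measured by MSD in lysates of TF1 cells. Cells were serum-starved, exposed to compound for 1 h (top concentration 10 μM, four-fold, 10 points), then given IL-3 at 30 ng/mL for 15 min.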

For assay [5], the target named is T2, human JAK3 kinase domain (JH1) (Homo sapiens, UniProt P52333).
T2 construct: recombinantly generated catalytic kinase (also known as JH1) domain of human JAK1, JAK2, JAK3 and TYK2
Kind of assay: JH1 biochemical assay for JAK3 (ADP-Glo kinase assay, recombinant JH1 catalytic domain, JAK3-974 peptide, 4 μM ATP). The following applies: JH1 kinase domain, ADP-Glo. A digest of the protocol:
as §1

Assay [6] concerns the target T3, human JAK2 kinase domain (JH1) (Homo sapiens, UniProt O60674).
T3 construct: recombinantly generated catalytic kinase (also known as JH1) domain of human JAK1, JAK2, JAK3 and TYK2
Kind of assay: JH1 biochemical assay for JAK2 (ADP-Glo kinase assay, recombinant JH1 catalytic domain, JAK3-974 peptide, 15 μM ATP). The following applies: JH1 kinase domain, ADP-Glo. A digest of the protocol: as §1

In assay [7] the target is T4, human TYK2 kinase domain (JH1) (Homo sapiens, UniProt P29597).
T4 construct: recombinantly generated catalytic kinase (also known as JH1) domain of human JAK1, JAK2, JAK3 and TYK2
T4 sequence (P29597 897-1176 limits assumed): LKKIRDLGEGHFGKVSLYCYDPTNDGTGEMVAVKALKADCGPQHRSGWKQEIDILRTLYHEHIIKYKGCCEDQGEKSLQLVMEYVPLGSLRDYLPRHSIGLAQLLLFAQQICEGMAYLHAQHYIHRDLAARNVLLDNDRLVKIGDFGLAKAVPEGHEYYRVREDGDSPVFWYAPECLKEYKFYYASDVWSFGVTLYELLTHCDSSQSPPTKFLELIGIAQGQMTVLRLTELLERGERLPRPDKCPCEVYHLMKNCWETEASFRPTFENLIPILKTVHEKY
Nature of the assay: JH1 biochemical assay for TYK2 (ADP-Glo kinase assay, recombinant JH1 catalytic domain, JAK3-974 peptide, 10 μM ATP). The following applies: JH1 kinase domain, ADP-Glo. A digest of the protocol:
as §1

T3 sequence (O60674 849-1124 limits assumed): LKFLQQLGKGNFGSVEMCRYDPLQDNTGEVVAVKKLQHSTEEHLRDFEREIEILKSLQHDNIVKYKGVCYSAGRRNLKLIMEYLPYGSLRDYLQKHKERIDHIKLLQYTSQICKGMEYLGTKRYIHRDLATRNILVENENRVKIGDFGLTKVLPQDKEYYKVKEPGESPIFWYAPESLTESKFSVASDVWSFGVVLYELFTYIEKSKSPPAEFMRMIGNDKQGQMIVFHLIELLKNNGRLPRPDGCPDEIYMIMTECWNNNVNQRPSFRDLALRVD
Chain of JAK2 kinase activity on STAT5 in TF1 cells (O60674 whole entry): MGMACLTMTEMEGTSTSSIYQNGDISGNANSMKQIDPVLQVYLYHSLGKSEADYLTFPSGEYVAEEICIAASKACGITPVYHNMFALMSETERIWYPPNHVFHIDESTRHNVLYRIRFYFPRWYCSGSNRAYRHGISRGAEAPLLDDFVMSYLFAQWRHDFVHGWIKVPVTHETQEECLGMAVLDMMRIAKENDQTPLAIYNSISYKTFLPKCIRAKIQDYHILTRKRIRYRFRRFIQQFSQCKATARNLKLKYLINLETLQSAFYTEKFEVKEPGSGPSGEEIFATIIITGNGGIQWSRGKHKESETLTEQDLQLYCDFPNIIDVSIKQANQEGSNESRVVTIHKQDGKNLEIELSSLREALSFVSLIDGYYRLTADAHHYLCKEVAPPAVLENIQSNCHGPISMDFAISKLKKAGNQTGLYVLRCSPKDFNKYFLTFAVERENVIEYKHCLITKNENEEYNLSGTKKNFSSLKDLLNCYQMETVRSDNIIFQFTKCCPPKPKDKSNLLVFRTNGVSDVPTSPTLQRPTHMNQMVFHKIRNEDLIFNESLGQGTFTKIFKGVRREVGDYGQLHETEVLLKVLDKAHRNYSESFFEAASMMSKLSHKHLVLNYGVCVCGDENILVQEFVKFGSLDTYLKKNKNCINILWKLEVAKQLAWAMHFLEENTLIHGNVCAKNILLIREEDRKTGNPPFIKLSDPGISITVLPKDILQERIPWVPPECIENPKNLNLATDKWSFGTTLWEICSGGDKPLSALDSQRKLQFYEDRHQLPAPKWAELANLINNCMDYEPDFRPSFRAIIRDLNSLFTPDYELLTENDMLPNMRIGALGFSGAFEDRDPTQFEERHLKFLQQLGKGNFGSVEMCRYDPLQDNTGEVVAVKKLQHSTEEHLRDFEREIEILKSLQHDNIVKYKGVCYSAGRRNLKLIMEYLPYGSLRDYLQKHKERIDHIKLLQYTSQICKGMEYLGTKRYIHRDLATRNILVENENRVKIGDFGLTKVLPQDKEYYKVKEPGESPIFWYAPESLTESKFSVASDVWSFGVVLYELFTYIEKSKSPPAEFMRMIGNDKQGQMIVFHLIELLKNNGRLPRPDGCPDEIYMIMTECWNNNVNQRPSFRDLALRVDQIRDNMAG
Chain of JAK1 kinase activity on STAT3 in TF1 cells (P23458 whole entry): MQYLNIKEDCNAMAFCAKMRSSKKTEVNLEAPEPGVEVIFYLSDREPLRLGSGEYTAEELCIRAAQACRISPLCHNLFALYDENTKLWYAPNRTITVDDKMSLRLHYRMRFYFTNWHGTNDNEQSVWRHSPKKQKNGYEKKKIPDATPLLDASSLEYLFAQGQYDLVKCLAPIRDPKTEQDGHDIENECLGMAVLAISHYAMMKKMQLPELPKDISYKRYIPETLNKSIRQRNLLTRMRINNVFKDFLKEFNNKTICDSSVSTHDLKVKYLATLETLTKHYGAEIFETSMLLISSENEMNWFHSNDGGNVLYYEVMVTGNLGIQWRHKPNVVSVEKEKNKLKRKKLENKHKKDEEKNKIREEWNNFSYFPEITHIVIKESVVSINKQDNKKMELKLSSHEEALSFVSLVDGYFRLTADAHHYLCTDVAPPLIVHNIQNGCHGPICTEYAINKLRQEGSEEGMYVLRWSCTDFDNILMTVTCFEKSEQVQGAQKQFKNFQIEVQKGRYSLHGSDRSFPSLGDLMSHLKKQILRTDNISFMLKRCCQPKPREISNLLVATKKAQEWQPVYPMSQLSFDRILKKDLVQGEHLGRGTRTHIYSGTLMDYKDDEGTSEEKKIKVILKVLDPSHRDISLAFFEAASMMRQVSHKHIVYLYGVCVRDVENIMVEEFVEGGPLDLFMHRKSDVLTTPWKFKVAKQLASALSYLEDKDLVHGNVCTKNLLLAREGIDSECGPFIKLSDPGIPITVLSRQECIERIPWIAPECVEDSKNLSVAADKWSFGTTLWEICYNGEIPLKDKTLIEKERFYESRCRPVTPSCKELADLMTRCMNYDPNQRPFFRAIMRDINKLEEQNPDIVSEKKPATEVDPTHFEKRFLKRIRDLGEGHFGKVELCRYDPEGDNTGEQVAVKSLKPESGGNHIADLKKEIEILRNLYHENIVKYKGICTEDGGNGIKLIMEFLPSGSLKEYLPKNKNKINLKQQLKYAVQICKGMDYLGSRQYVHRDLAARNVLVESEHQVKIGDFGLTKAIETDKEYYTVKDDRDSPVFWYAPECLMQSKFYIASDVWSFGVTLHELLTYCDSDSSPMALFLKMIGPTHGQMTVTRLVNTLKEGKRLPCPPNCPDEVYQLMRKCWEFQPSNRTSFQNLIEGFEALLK
T2 sequence (P52333 822-1111 limits assumed): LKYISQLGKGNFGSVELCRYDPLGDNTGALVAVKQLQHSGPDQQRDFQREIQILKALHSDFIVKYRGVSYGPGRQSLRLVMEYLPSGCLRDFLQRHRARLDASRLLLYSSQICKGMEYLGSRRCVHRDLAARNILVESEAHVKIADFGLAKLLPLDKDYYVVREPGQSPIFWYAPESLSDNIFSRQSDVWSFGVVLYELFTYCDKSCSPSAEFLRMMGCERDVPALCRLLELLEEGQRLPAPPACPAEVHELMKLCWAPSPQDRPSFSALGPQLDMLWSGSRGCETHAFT
Chain of Tyk2 kinase activity on STAT4 in NK92 cells (P29597 whole entry): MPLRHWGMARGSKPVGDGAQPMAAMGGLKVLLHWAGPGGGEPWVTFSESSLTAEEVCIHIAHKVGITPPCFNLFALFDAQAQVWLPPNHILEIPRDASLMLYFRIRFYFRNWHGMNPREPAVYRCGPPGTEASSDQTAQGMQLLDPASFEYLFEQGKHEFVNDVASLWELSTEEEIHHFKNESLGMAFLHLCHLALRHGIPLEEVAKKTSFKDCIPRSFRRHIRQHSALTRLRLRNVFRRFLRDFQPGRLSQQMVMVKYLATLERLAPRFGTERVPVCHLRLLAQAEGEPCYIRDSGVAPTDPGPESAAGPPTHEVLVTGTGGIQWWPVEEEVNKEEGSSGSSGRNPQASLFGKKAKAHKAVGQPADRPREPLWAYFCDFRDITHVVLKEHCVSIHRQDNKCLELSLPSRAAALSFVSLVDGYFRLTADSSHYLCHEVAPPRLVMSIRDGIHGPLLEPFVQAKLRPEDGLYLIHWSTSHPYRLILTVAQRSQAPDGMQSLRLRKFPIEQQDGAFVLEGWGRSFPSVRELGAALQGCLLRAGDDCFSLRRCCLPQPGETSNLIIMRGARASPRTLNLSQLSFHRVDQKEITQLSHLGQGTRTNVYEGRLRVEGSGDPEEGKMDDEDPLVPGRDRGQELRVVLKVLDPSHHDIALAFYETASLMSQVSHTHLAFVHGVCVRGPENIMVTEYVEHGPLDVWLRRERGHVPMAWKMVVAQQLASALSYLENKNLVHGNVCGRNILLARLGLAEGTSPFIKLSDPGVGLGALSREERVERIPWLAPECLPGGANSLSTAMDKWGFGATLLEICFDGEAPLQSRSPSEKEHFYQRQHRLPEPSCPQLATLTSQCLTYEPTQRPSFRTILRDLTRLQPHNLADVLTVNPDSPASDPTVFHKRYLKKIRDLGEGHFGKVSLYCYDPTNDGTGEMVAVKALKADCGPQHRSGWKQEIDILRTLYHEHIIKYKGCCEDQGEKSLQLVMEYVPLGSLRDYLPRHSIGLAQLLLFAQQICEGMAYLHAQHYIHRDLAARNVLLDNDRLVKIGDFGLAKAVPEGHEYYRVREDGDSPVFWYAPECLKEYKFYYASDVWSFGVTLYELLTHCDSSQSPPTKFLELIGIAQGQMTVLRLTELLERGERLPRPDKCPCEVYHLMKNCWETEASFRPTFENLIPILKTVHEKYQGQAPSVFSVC
T1 sequence (P23458 875-1153 limits assumed): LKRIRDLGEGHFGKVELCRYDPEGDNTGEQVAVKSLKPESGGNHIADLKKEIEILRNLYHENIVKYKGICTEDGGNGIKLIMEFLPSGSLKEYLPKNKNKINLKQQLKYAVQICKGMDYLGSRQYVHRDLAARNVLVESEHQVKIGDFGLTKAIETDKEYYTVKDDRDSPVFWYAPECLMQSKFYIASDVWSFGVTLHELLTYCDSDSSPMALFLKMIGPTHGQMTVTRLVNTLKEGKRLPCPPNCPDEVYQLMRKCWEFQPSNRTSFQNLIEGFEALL

Turning to `C[C@@H]1CN(c2ccnn3cc(-c4ccc5ncnn5c4)cc23)C(=O)[C@]1(C#N)C1CC1` [Example 57, (3R,4S)-1-(6-([1,2,4]triazolo[1,5-a]pyridin-6-yl)pyrrolo[1,2-b]pyridazin-4-yl)-3-cyclopropyl-4-methyl-2-oxopyrrolidine-3-carbonitrile], the IC50 (usually the point on the concentration scale where inhibition reaches its midpoint) in assay [1] was > 0.1 µM; in assay [2], 1 to 5 µM; in assay [3], 0.1 to 1 µM; in assay [4], > 10 µM; in assay [5], 0.1 to 1 µM; in assay [6], 0.1 to 1 µM. In addition, the IC50 in assay [7] fell in the range of 0.005 to 0.02 µM.
In the case of `CNC(=O)c1ccc(-c2cc3c(N4C[C@@H](C)[C@@](C#N)(C5CC5)C4=O)ccnn3c2)cn1` [Example 58, 5-(4-((3R,4S)-3-cyano-3-cyclopropyl-4-methyl-2-oxopyrrolidin-1-yl)pyrrolo[1,2-b]pyridazin-6-yl)-N-methylpicolinamide], the IC50 in assay [1] is 0.05 to 0.1 µM; in assay [2], 1 to 5 µM; in assay [3], 0.1 to 1 µM; in assay [4], > 10 µM; in assay [5], 0.1 to 1 µM; in assay [6], 0.1 to 1 µM. Also, in assay [7], the IC50 is 0.005 to 0.02 µM.
Turning to `C[C@@H]1CN(c2ccnn3cc(-c4cn[nH]c4)cc23)C(=O)[C@]1(C#N)C1CC1` [Example 59, (3R,4S)-1-(6-(1H-pyrazol-4-yl)pyrrolo[1,2-b]pyridazin-4-yl)-3-cyclopropyl-4-methyl-2-oxopyrrolidine-3-carbonitrile trifluoroacetate], the half-inhibitory concentration (IC50) in assay [1] was 0.05 to 0.1 µM; in assay [2], 1 to 5 µM; in assay [3] it was < 0.1 µM; in assay [4], 5 to 10 µM; in assay [5], 0.1 to 1 µM; in assay [6], 0.1 to 1 µM. For the same compound, the IC50 in assay [7] was < 0.005 µM.
On to `C[C@@H]1CN(c2ccnn3cc(-c4cccnc4)cc23)C(=O)[C@]1(C#N)C1CC1` [Example 60, (3R,4S)-3-cyclopropyl-4-methyl-2-oxo-1-(6-(pyridin-3-yl)pyrrolo[1,2-b]pyridazin-4-yl)pyrrolidine-3-carbonitrile], for which the IC50 in assay [1] is > 0.1 µM; in assay [2] it was 1 to 5 µM; in assay [3] it was 0.1 to 1 µM; in assay [4], > 10 µM; in assay [5], 0.1 to 1 µM; in assay [6], 0.1 to 1 µM. Moreover, the IC50 in assay [7] was 0.005 to 0.02 µM.
Take `CC(=O)Nc1cc(-c2cc3c(N4C[C@@H](C)[C@@](C#N)(C5CC5)C4=O)ccnn3c2)ccn1` [Example 61, N-(4-(4-((3R,4S)-3-cyano-3-cyclopropyl-4-methyl-2-oxopyrrolidin-1-yl)pyrrolo[1,2-b]pyridazin-6-yl)pyridin-2-yl)acetamide]: the half-maximal inhibitory concentration (IC50) in assay [1] is 0.02 to 0.05 µM; in assay [2] it was 0.1 to 1 µM; in assay [3] it was < 0.1 µM; in assay [4], 5 to 10 µM; in assay [5] it was 0.1 to 1 µM; in assay [6] it was 0.1 to 1 µM. Besides, the IC50 in assay [7] was < 0.005 µM.
Turning to `C[C@@H]1CN(c2ccnn3cc(-c4ccc(N(C)C)nc4)cc23)C(=O)[C@]1(C#N)C1CC1` [Example 62, (3R,4S)-3-cyclopropyl-1-(6-(6-(dimethylamino)pyridin-3-yl)pyrrolo[1,2-b]pyridazin-4-yl)-4-methyl-2-oxopyrrolidine-3-carbonitrile], the IC50 lay in the range of 0.05 to 0.1 µM in assay [1]; 1 to 5 µM in assay [2]; 0.1 to 1 µM in assay [3]; 1 to 5 µM in assay [4]; 0.1 to 1 µM in assay [5]; 0.1 to 1 µM in assay [6]. The IC50 in assay [7] is < 0.005 µM.
Turning to `C[C@@H]1CN(c2ccnn3cc(-c4ccn(C)n4)cc23)C(=O)[C@]1(C#N)C1CC1` [Example 63, (3R,4S)-3-cyclopropyl-4-methyl-1-(6-(1-methyl-1H-pyrazol-3-yl)pyrrolo[1,2-b]pyridazin-4-yl)-2-oxopyrrolidine-3-carbonitrile], the IC50 in assay [1] was > 0.1 µM; in assay [2] it was > 10 µM; in assay [3] it was 0.1 to 1 µM; in assay [4], > 10 µM; in assay [5] it was 0.1 to 1 µM; in assay [6], 0.1 to 1 µM. In addition, the IC50 in assay [7] was in the range of 0.005 to 0.02 µM.
